Data as given in patent US12371454B2, “Cyclic peptide compound having Kras inhibitory action” (priority 2019, dated 2025).
Starred links: 1 amine or outer side, 2 acyl side, 3 side chain; linkers in the order of their positions; H or OH if unused. Positions of bridges follow the written chain, without caps; N, C: chain ends. Non-standard residues stand in square brackets, D forms with d. Residues, ends and D or L forms follow the SMILES beside them. *: point of attachment. hPhe(3,5-F2-4-CF3) = N[C@@H](CCc1cc(F)c(C(F)(F)F)c(F)c1)C(=O)O; hPhe(3-Cl-4-CF3) = N[C@@H](CCc1ccc(C(F)(F)F)c(Cl)c1)C(=O)O; hPhe(3-F,4-CF3) = N[C@@H](CCc1ccc(C(F)(F)F)c(F)c1)C(=O)O; NMePhe(4-CF3) = CN[C@@H](Cc1ccc(C(F)(F)F)cc1)C(=O)O; X63 = O=C(C(CCc1ccc(C(F)(F)F)c(Cl)c1)N[*:1])[*:2]; NMeTyr(3-F) = CN[C@@H](Cc1ccc(O)c(F)c1)C(=O)O; NEtPhe(2-Cl) = CCN[C@@H](Cc1ccccc1Cl)C(=O)O; NMePhe(4-Me) = CN[C@@H](Cc1ccc(C)cc1)C(=O)O; X6 = CCN([C@@H](CC1CCCCC1)C(=O)[*:2])[*:1]; NMedβ3hAla = C[C@H](CC(=O)[*:2])N(C)[*:1]; NMeAla(cPent) = CN[C@@H](CC1CCCC1)C(=O)O; NMeGly(cPent) = CN[C@H](C(=O)O)C1CCCC1; NMe4Pal = CN[C@@H](Cc1ccncc1)C(=O)O; NMeY = CN[C@@H](Cc1ccc(O)cc1)C(=O)O; X64 = CN(C)CCOCCN(CC(=O)[*:2])[*:1]; NMeCha = CN[C@@H](CC1CCCCC1)C(=O)O; NMeChg = CN[C@H](C(=O)O)C1CCCCC1; NMeI = CC[C@H](C)[C@H](NC)C(=O)O; NMeD = CN[C@@H](CC(=O)O)C(=O)O; NMeL = CN[C@@H](CC(C)C)C(=O)O; NMeAc5c = CNC1(C(=O)O)CCCC1; NMeV = CN[C@H](C(=O)O)C(C)C; NMeAbu = CC[C@H](NC)C(=O)O; NMeA = CN[C@@H](C)C(=O)O; NMeAib = CNC(C)(C)C(=O)O; Piperidide = C1CCN(*)CC1; Pyrrolidide = C1CCN(*)C1; Ac5c = NC1(C(=O)O)CCCC1; Aze = O=C(O)[C@@H]1CCN1; Sar = CNCC(=O)O

What was measured:
[1] = system: Human pancreatic cancer cell line AsPC-1; assay: Measurement of AsPC-1 cell growth inhibition (AsPC-1 CGI); type: cell-based; conditions: 96 h
Protocol: Measurement of AsPC-1 Cell Growth Inhibition (AsPC-1 CGI)
Test compounds were serially diluted with dimethyl sulfoxide, and 200 nL was then dispensed to a U-bottom 96-well plate using Labcyte Echo. Human pancreatic cancer cell line AsPC-1 was suspended in RPMI-1640 medium supplemented with 15% fetal bovine serum to prepare a cell suspension at 1000 cells/100 μL. The cell suspension was dispensed to a plate containing a test compound at 100 μL per well and incubated at 37° C. in a 5% carbon dioxide gas incubator. 96 hours later, 80 μL of CellTiter-Glo (Promega) was added to each well and […] was measured.

[2] = target: T1, Kras and SOS1 (biotin-tagged human Kras loaded with GDP, His-tagged human SOS1) (Homo sapiens, UniProt P01116, G12D); assay: Protein-protein interaction inhibition between Kras and SOS1 (KrasGl2D-SOS PPI) using AlphaScreen; type: binding; conditions: AlphaScreen; biotin-tagged human Kras loaded with GDP, His-tagged human SOS1; read-out: KRAS G12D-SOS PPI IC50
T1 construct: made in house; host or cells: E. coli (stated for Kras only)
In short: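 Energy transfer from nickel-chelate donor beads bound to His-SOS1 to streptavidin acceptor beads bound to biotin-Kras, expressed in E. coli and loaded with GDP after purification, was monitored. Donors were excited at 680 nm; singlet oxygen reaching acceptors gave emission read at 520-620 nm.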

T1 sequence (P01116 1-188 isoform P01116-2 G12D): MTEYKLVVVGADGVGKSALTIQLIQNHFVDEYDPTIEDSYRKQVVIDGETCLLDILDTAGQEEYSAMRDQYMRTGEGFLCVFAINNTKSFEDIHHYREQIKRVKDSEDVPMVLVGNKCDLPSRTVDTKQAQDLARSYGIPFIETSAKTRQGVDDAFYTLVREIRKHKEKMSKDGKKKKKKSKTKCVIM

SMILES	IC50 [1]	IC50 [2]
CC[C@H](C)[C@@H]1NC(=O)[C@H](CC(C)C)N(C)C(=O)C[C@@H](C)N(C)C(=O)[C@H](CC(C)C)NC(=O)C2(CCCC2)N(C)C(=O)[C@H](CC(C)C)NC(=O)[C@H](CCc2ccc(C(F)(F)F)c(F)c2)NC(=O)CN(C)C(=O)[C@H](CC2CCCCC2)N(C)C(=O)CN(C)C(=O)CN(C)C1=O [Compound 2] (cyclo(I[Sar][Sar][NMeCha][Sar][hPhe(3-F,4-CF3)]L[NMeAc5c]L[NMedβ3hAla][NMeL]))	100 to 500 nM	–
CC[C@H](C)[C@@H]1NC(=O)[C@H](CC(C)C)N(C)C(=O)C[C@@H](C(=O)N2CCCCC2)N(C)C(=O)[C@H](C(C)C)N(C)C(=O)C2(CCCC2)NC(=O)[C@@H]2CCCN2C(=O)[C@H](CCc2ccc(C(F)(F)F)c(Cl)c2)NC(=O)CN(C)C(=O)[C@H](CC2CCCCC2)N(CC)C(=O)[C@@H]2CCN2C(=O)[C@H](C)N(C)C1=O [Compound 23] ([NMeL]I[NMeA][Aze][X6][Sar][hPhe(3-Cl-4-CF3)]P[Ac5c][NMeV][NMeD]-Piperidide; lactam N-11)	100 to 500 nM	–
CC[C@H](C)[C@@H]1NC(=O)[C@H](CC(C)C)N(C)C(=O)C[C@@H](C(=O)N2CCCCC2)N(C)C(=O)[C@H](C2CCCCC2)N(C)C(=O)C2(CCCC2)NC(=O)[C@H](Cc2ccncc2)N(C)C(=O)[C@H](CCc2ccc(C(F)(F)F)c(Cl)c2)NC(=O)CN(C)C(=O)[C@H](CC2CCCCC2)N(C)C(=O)CN(C)C(=O)CN(C)C1=O [Compound 36] ([NMeL]I[Sar][Sar][NMeCha][Sar][hPhe(3-Cl-4-CF3)][NMe4Pal][Ac5c][NMeChg][NMeD]-Piperidide; lactam N-11)	100 to 500 nM	–
CC[C@H](C)[C@@H]1NC(=O)[C@H](CC2CCCC2)N(C)C(=O)C[C@@H](C(=O)N2CCCCC2)N(C)C(=O)[C@H](C(C)C)N(C)C(=O)C2(CCCC2)NC(=O)[C@@H]2CCCN2C(=O)[C@H](CCc2ccc(C(F)(F)F)c(Cl)c2)NC(=O)CN(C)C(=O)[C@H](CC2CCCCC2)N(C)C(=O)[C@@H]2CCN2C(=O)[C@H](C)N(C)C1=O [Compound 37] ([NMeAla(cPent)]I[NMeA][Aze][NMeCha][Sar][hPhe(3-Cl-4-CF3)]P[Ac5c][NMeV][NMeD]-Piperidide; lactam N-11)	100 to 500 nM	–
CC[C@H](C)[C@@H]1NC(=O)[C@H](CC(C)C)N(C)C(=O)C[C@@H](C)N(C)C(=O)[C@H](C2CCCCC2)N(C)C(=O)C2(CCCC2)NC(=O)[C@@H]2CCCN2C(=O)[C@H](CCc2cc(F)c(C(F)(F)F)c(F)c2)NC(=O)CN(C)C(=O)[C@H](Cc2ccc(C(F)(F)F)cc2)N(C)C(=O)[C@@H]2CCN2C(=O)[C@H](C)N(C)C1=O [Compound 39] (cyclo([Ac5c][NMeChg][NMedβ3hAla][NMeL]I[NMeA][Aze][NMePhe(4-CF3)][Sar][hPhe(3,5-F2-4-CF3)]P))	100 to 500 nM	–
CC[C@H](C)[C@@H]1NC(=O)[C@H](CC(C)C)N(C)C(=O)C[C@@H](C(=O)N2CCCC2)N(C)C(=O)[C@H]([C@@H](C)CC)N(C)C(=O)C2(CCCC2)NC(=O)[C@@H]2CCCN2C(=O)[C@H](CCc2ccc(C(F)(F)F)c(F)c2)NC(=O)CN(C)C(=O)[C@H](Cc2ccc(C)cc2)N(C)C(=O)[C@@H]2CCN2C(=O)[C@H](C)N(C)C1=O [Compound 44] ([NMeL]I[NMeA][Aze][NMePhe(4-Me)][Sar][hPhe(3-F,4-CF3)]P[Ac5c][NMeI][NMeD]-Pyrrolidide; lactam N-11)	20 to 50 nM	–
CC[C@H](C)[C@@H]1NC(=O)[C@H](CC(C)C)N(C)C(=O)C[C@@H](C)N(C)C(=O)[C@H](C2CCCC2)N(C)C(=O)C2(CCCC2)NC(=O)[C@@H]2CCCN2C(=O)[C@H](CCc2ccc(C(F)(F)F)c(F)c2)NC(=O)CN(C)C(=O)[C@H](CC2CCCCC2)N(C)C(=O)[C@@H]2CCN2C(=O)[C@H](C)N(C)C1=O [Compound 49] (cyclo([Ac5c][NMeGly(cPent)][NMedβ3hAla][NMeL]I[NMeA][Aze][NMeCha][Sar][hPhe(3-F,4-CF3)]P))	20 to 50 nM	–
CC[C@H](C)[C@@H]1NC(=O)[C@H](C2CCCCC2)N(C)C(=O)C[C@@H](C(=O)N2CCCCC2)N(C)C(=O)[C@H](C(C)C)N(C)C(=O)C2(CCCC2)NC(=O)[C@@H]2CCCN2C(=O)[C@H](CCc2ccc(C(F)(F)F)c(Cl)c2)NC(=O)CN(C)C(=O)[C@H](CC2CCCCC2)N(C)C(=O)[C@@H]2CCN2C(=O)[C@H](C)N(C)C1=O [Compound 58] ([NMeChg]I[NMeA][Aze][NMeCha][Sar][hPhe(3-Cl-4-CF3)]P[Ac5c][NMeV][NMeD]-Piperidide; lactam N-11)	100 to 500 nM	–
CC[C@H](C)[C@@H]1NC(=O)[C@H](C)N(C)C(=O)C[C@@H](C)N(C)C(=O)[C@H](CC)N(C)C(=O)C(C)(C)N(C)C(=O)[C@@H]2CCCN2C(=O)[C@H](CCc2ccc(C(F)(F)F)c(Cl)c2)NC(=O)CN(C)C(=O)[C@H](CC2CCCCC2)N(C)C(=O)[C@@H]2CCN2C(=O)[C@H](C)N(C)C1=O [Compound 2154] (cyclo([Aze][NMeCha][Sar][hPhe(3-Cl-4-CF3)]P[NMeAib][NMeAbu][NMedβ3hAla][NMeA]I[NMeA]))	–	33 nM
CC[C@H](C)[C@@H]1NC(=O)[C@H](C)N(C)C(=O)C[C@@H](C)N(C)C(=O)[C@H](C2CCCC2)N(C)C(=O)C(C)(C)N(C)C(=O)[C@@H]2CCCN2C(=O)[C@H](CCc2ccc(C(F)(F)F)c(Cl)c2)NC(=O)CN(C)C(=O)[C@H](CC2CCCCC2)N(C)C(=O)[C@@H]2CCN2C(=O)[C@H](C)N(C)C1=O [Compound 2156] (cyclo([Aze][NMeCha][Sar][hPhe(3-Cl-4-CF3)]P[NMeAib][NMeGly(cPent)][NMedβ3hAla][NMeA]I[NMeA]))	–	4.5 nM
CC[C@H](C)[C@@H]1NC(=O)[C@H](C)N(C)C(=O)C[C@@H](C)N(C)C(=O)[C@H](CC2CCCC2)N(C)C(=O)C(C)(C)N(C)C(=O)[C@@H]2CCCN2C(=O)[C@H](CCc2ccc(C(F)(F)F)c(Cl)c2)NC(=O)CN(C)C(=O)[C@H](CC2CCCCC2)N(C)C(=O)[C@@H]2CCN2C(=O)[C@H](C)N(C)C1=O [Compound 2158] (cyclo([Aze][NMeCha][Sar][hPhe(3-Cl-4-CF3)]P[NMeAib][NMeAla(cPent)][NMedβ3hAla][NMeA]I[NMeA]))	–	89 nM
CC[C@H](C)[C@@H]1NC(=O)[C@H](C)N(C)C(=O)C[C@@H](C)N(C)C(=O)[C@H](CC(C)C)N(C)C(=O)C(C)(C)N(C)C(=O)[C@@H]2CCCN2C(=O)[C@H](CCc2ccc(C(F)(F)F)c(Cl)c2)NC(=O)CN(C)C(=O)[C@H](CC2CCCCC2)N(C)C(=O)[C@@H]2CCN2C(=O)[C@H](C)N(C)C1=O [Compound 2160] (cyclo([Aze][NMeCha][Sar][hPhe(3-Cl-4-CF3)]P[NMeAib][NMeL][NMedβ3hAla][NMeA]I[NMeA]))	–	3.8 nM
CC[C@H](C)[C@@H]1NC(=O)[C@H](C)N(C)C(=O)C[C@@H](C(=O)N2CCCC2)N(C)C(=O)[C@H](C(C)C)N(C)C(=O)C2(CCCC2)NC(=O)[C@H](Cc2ccccc2Cl)N(CC)C(=O)[C@H](CCc2ccc(C(F)(F)F)c(Cl)c2)NC(=O)CN(C)C(=O)[C@H](CC2CCCCC2)N(C)C(=O)CN(C)C(=O)CN(C)C1=O [Compound 2162] ([NMeA]I[Sar][Sar][NMeCha][Sar][hPhe(3-Cl-4-CF3)][NEtPhe(2-Cl)][Ac5c][NMeV][NMeD]-Pyrrolidide; lactam N-11)	–	200 nM
CC[C@H](C)[C@@H]1NC(=O)[C@H](CC(C)C)N(C)C(=O)C[C@@H](C(=O)N2CCCCC2)N(C)C(=O)[C@H](C2CCCCC2)N(C)C(=O)C2(CCCC2)NC(=O)[C@H](Cc2ccc(O)c(F)c2)N(C)C(=O)[C@H](CCc2ccc(C(F)(F)F)c(Cl)c2)NC(=O)CN(C)C(=O)[C@H](CC2CCCCC2)N(C)C(=O)CN(C)C(=O)CN(C)C1=O [Compound 2170] ([NMeL]I[Sar][Sar][NMeCha][Sar][hPhe(3-Cl-4-CF3)][NMeTyr(3-F)][Ac5c][NMeChg][NMeD]-Piperidide; lactam N-11)	–	69 nM
CC[C@H](C)[C@@H]1NC(=O)[C@H](CC(C)C)N(C)C(=O)C[C@@H](C(=O)N2CCCCC2)N(C)C(=O)[C@H](C2CCCCC2)N(C)C(=O)C2(CCCC2)NC(=O)[C@H](Cc2ccc(OC)cc2)N(C)C(=O)[C@H](CCc2ccc(C(F)(F)F)c(Cl)c2)NC(=O)CN(C)C(=O)[C@H](CC2CCCCC2)N(C)C(=O)CN(C)C(=O)CN(C)C1=O [Compound 2171] ([NMeL]I[Sar][Sar][NMeCha][Sar][hPhe(3-Cl-4-CF3)][NMeY](Me)[Ac5c][NMeChg][NMeD]-Piperidide; lactam N-11)	–	120 nM
CC[C@H](C)[C@@H]1NC(=O)[C@H](CC(C)C)N(C)C(=O)C[C@@H](C(=O)N(C)C)N(C)C(=O)[C@H]([C@@H](C)CC)N(C)C(=O)C2(CCCC2)NC(=O)CN(CCOCCN(C)C)C(=O)C(CCc2ccc(C(F)(F)F)c(Cl)c2)NC(=O)CN(C)C(=O)[C@H](Cc2ccc(C)cc2)N(C)C(=O)[C@@H]2CCN2C(=O)[C@H](C)N(C)C1=O (stereo partly drawn) [Compound 2181, (3S,6S,9S,13S,16S,31S,34S)-25-[2-[3-chloro-4-(trifluoromethyl)phenyl]ethyl]-23-[2-[2-(dimethylamino)ethoxy]ethyl]-9-isobutyl-N,N,3,4,10,14,17,29,32-nonamethyl-6,16-bis[(1S)-1-methylpropyl]-2,5,8,11,15,18,21,24,27,30,33-undecaoxo-31-(p-tolylmethyl)spiro[1,4,7,10,14,17,20,23,26,29,32-undecazabicyclo[32.2.0]hexatriacontane-19,1′-cyclopentane]-13-carboxamide] ([NMeL]I[NMeA][Aze][NMePhe(4-Me)][Sar][X63][X64][Ac5c][NMeI][NMeD]-NMe2; lactam N-11)	–	5.5 nM
